In assay [1] the test system is tumor-infiltrating T cells and MDSC in 4T1 tumor microenvironment. The assay is described as follows: Flow cytometry of immune cells in 4T1 tumors. The following applies: immune competent mice. Format: in vivo, Balb/C mice. The protocol:
The composition of immune cells was analyzed with multi-color flow cytometry (FACS) at days when tumor reaches 800-1000 mm^3. Tumors were treated with dissociation media (Miltenyi, CAT #130-096-730) and resuspend in FACS buffer. T cell infiltration was measured by the investigating the number of T cells in the tumor samples. CD4 T, CD8 T, activated CD4 T, and activated CD8 T cells were identified by cell surface marker as CD45^+CD3^+CD4^+, CD45^+CD3^+CD8^+, CD45^+CD3^+CD4^+CD69^+, and CD45^+CD3^+CD8^+CD69^+, respectively. The absolute count of cells was measured by normalized number of cells with counting beads (eBiosciences CAT #01-1234-42) and the weight of each tumor sample. Absolute count of tumor-infiltrating T cells was calculated by the formula as Absolute count (cells/mg)=[(cell count×eBead Volume)/(eBead count×tumor weight)]×eBead concentration.

Assay [2] deals with 4T1 breast cancer cells. The assay is described as follows: Tumor growth inhibition in immune-competent syngeneic mouse model 4T1. Format: in vivo, Balb/C mice. The following applies: 14 day; CX-4945 75 mg/kg oral BID Day 0-13; cisplatin 6 mg/kg i.p. QW Day 0 and 7. The method, then: Efficacy studies of tumor growth inhibition and T cells activities was conducted in an immune-competent syngeneic mouse models, 4T1, that is known to be resistant to the treatment of immune checkpoint inhibitors such as anti-PD1, anti-PD-L1, and anti-CTLA4. The resistance to these antagonists that modulates T cell […] signaling indicate a high immune suppressive tumor microenvironment.
This series of studies were conducted in Balb/C mice that are six to eight weeks old. Breast cancer cells, 4T1, were injected subcutaneously with 3×10^5 cells in 0.1 ml PBS to the right flank of the mice. Mice were randomized for treatment when the mean tumor size reached approximately 80-120 mm^3. Treatment were administered with CX-4945 and/or cisplatin at the doses and schedules described in Table 1. […] Tumors were measured two dimensionally (width×length) with an electronic caliper and tumor volume was calculated with the formula V=(L×W×W)/2, where V is tumor volume, L is tumor length (the longest tumor dimension) and W is tumor width (the longest tumor dimension perpendicular to L). The mice were monitored twice weekly and euthanized when tumor sizes reached approximately 800-1000 mm^3 for flow cytometry analysis.
Anti-tumor activities were measured as % Tumor Growth Inhibition (% TGI) at the time of euthanized. TGI was calculated as % TGI=100×(1−T/C). […]

The subject of assay [3] is Colo-205 colorectal cancer model. The assay can be described thus: Colo-205 colorectal cancer model, gemcitabine and CX-4945. Format: in vivo. The following applies: Colo-205 model (FIG. 2). From the text:
The Colo-205 colorectal cancer model is resistant to each individual agent alone (FIG. 2).

In assay [4] the test system is A2780 ovarian cancer xenografts. The assay can be described thus: A2780 ovarian tumor xenograft model, gemcitabine and CX-4945. Format: in vivo. The settings on record: gemcitabine 60 mg/kg i.v., CX-4945 100 mg/kg oral.

These results are taken from patent US12116363B2, “Combinations for immune-modulation in cancer treatment” (SENHWA BIOSCIENCES, INC., priority 2018, dated 2024).

Each structure is given as a SMILES string.

Turning to `O=C(O)c1ccc2c(c1)nc(Nc1cccc(Cl)c1)c1ccncc12` [CX-4945, silmitasertib], in assay [1], the “number of MDSC systemically or locally in the tumor microenvironment” value was “does not decrease”. Further, the “% TGI” value in assay [2] is reported as 18%. The tumor growth entry in assay [3] was “resistant”. In addition, in assay [4], the “% TGI” value stood at 20%, the “Median TTE days” value turned out to be 18 days and the “delay in time to endpoint (TTE analysis)” value is “significant delay in time to endpoint”.
Take `N.N.[Cl][Pt][Cl]` [Cisplatin, cisplatin, reference compound]: in assay [2], the “% TGI” value is reported as 45%.
For `Nc1ccn([C@@H]2O[C@H](CO)[C@@H](O)C2(F)F)c(=O)n1` [Gemcitabine, gemcitabine, reference compound], the tumor growth entry in assay [3] was “resistant”. Also, in assay [4], the “% TGI” value is listed as 68%, the “Median TTE days” value turned out to be 28 days and the “delay in time to endpoint (TTE analysis)” value is “significant delay in time to endpoint”.
